Structures are written as SMILES.

We go through 16 compounds from PMC11434480, “Discovery and Optimization of Ergosterol Peroxide Derivatives as Novel Glutaminase 1 Inhibitors for the Treatment of Triple-Negative Breast Cancer” (Molecules, 2024).

The subject of one assay is A549. The assay can be described thus: MTT antiproliferative assay, A549. It counts as cell-based, human. Conditions: mean of three experiments ± SD.
For a further assay, the system named is MDA-MB-231. The assay can be described thus: MTT antiproliferative assay, MDA-MB-231. It counts as cell-based, human. Conditions: MTT, 48 h, mean of three experiments ± SD.
In a further assay the test system is MCF-7. Description: MTT antiproliferative assay, MCF-7. Conditions: mean of three experiments ± SD. The class given is cell-based, human.
The test system of a further assay is HepG2. The assay can be described thus: MTT antiproliferative assay, HepG2. The class given is cell-based, human. Conditions: mean of three experiments ± SD.
The target of the next assay is T1, human GLS1 (Homo sapiens, UniProt O94925).
T1 sequence (O94925 55-669): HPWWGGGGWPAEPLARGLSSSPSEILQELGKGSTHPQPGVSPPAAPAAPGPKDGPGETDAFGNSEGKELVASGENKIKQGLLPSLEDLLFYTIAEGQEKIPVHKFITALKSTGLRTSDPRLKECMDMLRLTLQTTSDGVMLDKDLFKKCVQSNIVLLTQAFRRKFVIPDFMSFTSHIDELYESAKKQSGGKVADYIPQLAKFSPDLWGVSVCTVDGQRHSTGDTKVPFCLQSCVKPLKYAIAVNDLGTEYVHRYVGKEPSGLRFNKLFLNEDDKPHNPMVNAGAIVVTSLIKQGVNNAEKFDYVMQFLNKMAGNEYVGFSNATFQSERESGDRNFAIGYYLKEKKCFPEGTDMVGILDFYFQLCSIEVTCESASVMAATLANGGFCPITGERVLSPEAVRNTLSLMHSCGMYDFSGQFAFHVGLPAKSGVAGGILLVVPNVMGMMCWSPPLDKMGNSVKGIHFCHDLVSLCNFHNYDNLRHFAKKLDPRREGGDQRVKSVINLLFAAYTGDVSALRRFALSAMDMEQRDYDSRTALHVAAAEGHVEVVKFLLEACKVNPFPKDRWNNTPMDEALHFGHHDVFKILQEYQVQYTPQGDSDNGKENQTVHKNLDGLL
The assay can be described thus: GLS1 inhibitor screening kit in MDA-MB-231 cells. The class given is cell-based. Conditions: 48 h, read-out: GLS1 inhibition IC50. The protocol: The GLS1 inhibitory activity of compound 3g in MDA-MB-231 cells was evaluated using a GLS1 inhibitor screening kit.
MDA-MB-231 cells were cultured for 24 h and then incubated with different concentrations of 3g or 0.1%DMSO for 48 h and washed with PBS 1–2 times. The cells were then collected, subjected to ultrasound in an ice bath for 5 min, and centrifuged at 4 °C and 1200 g for 15 min. Next, the GLS1 activity in human GLS1 was evaluated according to the manufacturer’s guidelines using a GLS1 screening kit (Sangon Biotech #D799306, Shanghai, China) in a 96-well plate (Corning # 351172, New York, NY, USA).

Experimental for A549: (§1) The in vitro antiproliferative activity of the novel EP derivatives (1a–h, 2a–h, 3a–h, and 4a–h) was evaluated on four different human cancer cell lines (A549, HepG2, MCF-7, and MDA-MB-231) using an MTT assay.
(§2) Cells containing 10% fetal bovine serum (FBS; WISENT, Nanjing, China) were cultured in an L-15 culture medium (L-15, BOSTER, Wuhan, China) in an incubator at 37 °C. The cells were then inoculated into 96-well plates at a density of 5 × 10^3/well, cultured in 100 μL L-15 medium for 24 h, and incubated with the compound to be tested for 48 h. Next, 20 μL of MTT (5 mg/mL) solution was added and incubated at 37 °C for 4 h away from light. A resorption culture medium was then supplemented with 150 μL DMSO per well. The absorbance was measured at 570 nm using an enzymometer (SAFIRE2, Tecan, Swiss Confederation, Männedorf, Switzerland). The cytotoxic activity was presented in terms of half the inhibition rate.
Experimental for HepG2: as §1, §2
Experimental for MCF-7: as §1, §2

Take `O=C(Cc1ccccc1)Nc1nnc(CCSCCc2nnc(NC(=O)Cc3ccccc3)s2)s1` [BPTES, reference compound]: the IC50 in the assay on A549 (Homo sapiens, A549, 48 h) came out at 49.1 ± 11.6 µM; in the assay on MDA-MB-231 (Homo sapiens, MDA-MB-231) it was 9.1 ± 0.26 µM; in the assay with MCF-7 (Homo sapiens, MCF7, 48 h) it was 21.3 ± 6.89 µM; in the assay with HepG2 (Homo sapiens, HepG2, 48 h), 60.2 ± 8.35 µM.

Consider `N.N.[Cl][Pt][Cl]` [Cisplatin, reference compound], for which the IC50 in the assay with A549 (48 h) stood at 11.6 ± 0.38 µM; in the assay with MDA-MB-231 it was 10.4 ± 0.34 µM; in the assay with MCF-7 (48 h), 4.23 ± 0.24 µM; with HepG2 (48 h) it was 6.29 ± 0.3 µM.

`CC(C)C(C)C=CC(C)C1CCC2C1(C)CCC1C23C=CC2(CC(OC(=O)CCCC(=O)Nc4nncs4)CCC12C)OO3` (centres unmarked) [Compound 3a, Ergosterol peroxide-3-(5-((1,3,4-thiadiazol-2-yl)amino)-5-oxopentanoate)]: the IC50 with A549 (Homo sapiens, A549, 48 h) amounted to 9.73 ± 0.42 µM; with MDA-MB-231 (Homo sapiens, MDA-MB-231) it was 7.06 ± 0.35 µM; in the assay with MCF-7 (Homo sapiens, MCF7, 48 h) it was 5.16 ± 0.93 µM; in the assay on HepG2 (Homo sapiens, HepG2, 48 h) it was 10.7 ± 0.82 µM.

As for `CC(C)C(C)C=CC(C)C1CCC2C1(C)CCC1C23C=CC2(CC(OC(=O)CCCC(=O)Nc4nccs4)CCC12C)OO3` (centres unmarked) [Compound 3b, Ergosterol peroxide-3-(5-oxo-5-(thiazol-2-ylamino)pentanoate)], the IC50 with A549 (Homo sapiens, A549, 48 h) came out at 11.7 ± 0.82 µM; in the assay with MDA-MB-231 (Homo sapiens, MDA-MB-231), 6.92 ± 0.28 µM; in the assay with MCF-7 (Homo sapiens, MCF7, 48 h), 9.47 ± 0.75 µM; in the assay on HepG2 (Homo sapiens, HepG2, 48 h), 13.1 ± 1.22 µM.

In the case of `CC(C)C(C)C=CC(C)C1CCC2C1(C)CCC1C23C=CC2(CC(OC(=O)CCCC(=O)Nc4nc5cc(F)ccc5s4)CCC12C)OO3` (centres unmarked) [Compound 3c, Ergosterol peroxide-3-(5-((5-fluorobenzo[d]thiazol-2-yl)amino)-5-oxopentanoate)], the IC50 in the assay with A549 (Homo sapiens, A549, 48 h) amounted to 11.4 ± 0.79 µM; in the assay on MDA-MB-231 (Homo sapiens, MDA-MB-231) it was 12 ± 0.72 µM; in the assay with MCF-7 (Homo sapiens, MCF7, 48 h), 11 ± 0.62 µM; in the assay on HepG2 (Homo sapiens, HepG2, 48 h), 11.9 ± 1.07 µM.

With `CC(C)C(C)C=CC(C)C1CCC2C1(C)CCC1C23C=CC2(CC(OC(=O)CCCC(=O)Nc4nc5ccc(F)cc5s4)CCC12C)OO3` (centres unmarked) [Compound 3d, Ergosterol peroxide-3-(5-((6-fluorobenzo[d]thiazol-2-yl)amino)-5-oxopentanoate)], the IC50 with A549 (Homo sapiens, A549, 48 h) stood at 9.09 ± 0.64 µM; in the assay on MDA-MB-231 (Homo sapiens, MDA-MB-231) it was 10.8 ± 0.53 µM; in the assay on MCF-7 (Homo sapiens, MCF7, 48 h), 8.39 ± 0.34 µM; in the assay on HepG2 (Homo sapiens, HepG2, 48 h), 14.7 ± 0.35 µM.

On to `CC(C)C(C)C=CC(C)C1CCC2C1(C)CCC1C23C=CC2(CC(OC(=O)CCCC(=O)Nc4ccccc4)CCC12C)OO3` (centres unmarked) [Compound 3e, Ergosterol peroxide-3-(5-oxo-5-(phenylamino)pentanoate)], for which the IC50 with A549 (Homo sapiens, A549, 48 h) is 10.5 ± 0.79 µM; with MDA-MB-231 (Homo sapiens, MDA-MB-231) it was 4.78 ± 0.41 µM; with MCF-7 (Homo sapiens, MCF7, 48 h) it was 11.6 ± 0.66 µM; with HepG2 (Homo sapiens, HepG2, 48 h), 14.9 ± 1.13 µM.

In the case of `CC(C)C(C)C=CC(C)C1CCC2C1(C)CCC1C23C=CC2(CC(OC(=O)CCCC(=O)Nc4ccc(F)cc4)CCC12C)OO3` (centres unmarked) [Compound 3f, Ergosterol peroxide-3-(5-((4-fluorophenyl)amino)-5-oxopentanoate)], the IC50 came to 11.1 ± 0.93 µM with A549 (Homo sapiens, A549, 48 h); 7.19 ± 0.39 µM in the assay on MDA-MB-231 (Homo sapiens, MDA-MB-231); 8.09 ± 0.71 µM with MCF-7 (Homo sapiens, MCF7, 48 h); 9.79 ± 1.01 µM in the assay with HepG2 (Homo sapiens, HepG2, 48 h).

In the case of `CC(C)C(C)C=CC(C)C1CCC2C1(C)CCC1C23C=CC2(CC(OC(=O)CCCC(=O)Nc4ccc5ccccc5c4)CCC12C)OO3` (centres unmarked) [Compound 3h, Ergosterol peroxide-3-(5-(naphthalen-2-ylamino)-5-oxopentanoate)], the concentration for half-maximal inhibition (IC50) came to 9.3 ± 0.66 µM in the assay on A549 (Homo sapiens, A549, 48 h); 4.98 ± 0.84 µM in the assay on MDA-MB-231 (Homo sapiens, MDA-MB-231); 8.65 ± 0.73 µM with MCF-7 (Homo sapiens, MCF7, 48 h); 13.8 ± 1.3 µM in the assay with HepG2 (Homo sapiens, HepG2, 48 h).

As for `CC(C)C(C)C=CC(C)C1CCC2C1(C)CCC1C23C=CC2(CC(OC(=O)c4ccccc4C(=O)Nc4nncs4)CCC12C)OO3` (centres unmarked) [Compound 4a, Ergosterol peroxide-3-(2-((1,3,4-thiadiazol-2-yl)carbamoyl)benzoate)], the IC50 in the assay on A549 (Homo sapiens, A549, 48 h) came to 7.07 ± 0.47 µM; in the assay with MDA-MB-231 (Homo sapiens, MDA-MB-231), 10.2 ± 0.62 µM; in the assay on MCF-7 (Homo sapiens, MCF7, 48 h), 8.2 ± 0.68 µM; with HepG2 (Homo sapiens, HepG2, 48 h), 8.08 ± 0.64 µM.

Turning to `CC(C)C(C)C=CC(C)C1CCC2C1(C)CCC1C23C=CC2(CC(OC(=O)c4ccccc4C(=O)Nc4nccs4)CCC12C)OO3` (centres unmarked) [Compound 4b, Ergosterol peroxide-3-(2-oxo-5-((thiazol-2-yl)carbamoyl)benzoate)], the IC50 amounted to 12.8 ± 1.08 µM in the assay on A549 (Homo sapiens, A549, 48 h); 15.8 ± 1.26 µM in the assay with MDA-MB-231 (Homo sapiens, MDA-MB-231); 12.6 ± 0.94 µM with MCF-7 (Homo sapiens, MCF7, 48 h); 11 ± 0.76 µM in the assay on HepG2 (Homo sapiens, HepG2, 48 h).

Regarding `CC(C)C(C)C=CC(C)C1CCC2C1(C)CCC1C23C=CC2(CC(OC(=O)c4ccccc4C(=O)Nc4nc5cc(F)ccc5s4)CCC12C)OO3` (centres unmarked) [Compound 4c, Ergosterol peroxide-3-(2-((5-fluorobenzo[d]thiazol-2-yl)carbamoyl)benzoate)], the IC50 in the assay with A549 (Homo sapiens, A549, 48 h) came to 11.7 ± 1.02 µM; in the assay on MDA-MB-231 (Homo sapiens, MDA-MB-231), 7.32 ± 0.58 µM; with MCF-7 (Homo sapiens, MCF7, 48 h) it was 10.7 ± 0.47 µM; in the assay on HepG2 (Homo sapiens, HepG2, 48 h), 11.4 ± 0.98 µM.

As for `CC(C)C(C)C=CC(C)C1CCC2C1(C)CCC1C23C=CC2(CC(OC(=O)c4ccccc4C(=O)Nc4nc5ccc(F)cc5s4)CCC12C)OO3` (centres unmarked) [Compound 4d, Ergosterol peroxide-3-(2-((6-fluorobenzo[d]thiazol-2-yl)carbamoyl)benzoate)], the IC50 in the assay with A549 (Homo sapiens, A549, 48 h) is 8.99 ± 0.81 µM; with MDA-MB-231 (Homo sapiens, MDA-MB-231) it was 11.3 ± 0.44 µM; in the assay with MCF-7 (Homo sapiens, MCF7, 48 h) it was 10.6 ± 0.52 µM; with HepG2 (Homo sapiens, HepG2, 48 h) it was 15.3 ± 1.31 µM.

Turning to `CC(C)C(C)C=CC(C)C1CCC2C1(C)CCC1C23C=CC2(CC(OC(=O)c4ccccc4C(=O)Nc4ccc(F)cc4)CCC12C)OO3` (centres unmarked) [Compound 4f, Ergosterol peroxide-3-(2-((4-fluorophenyl)carbamoyl)benzoate)], the IC50 in the assay on A549 (Homo sapiens, A549, 48 h) is 18.8 ± 0.64 µM; with MDA-MB-231 (Homo sapiens, MDA-MB-231), 13.4 ± 1.24 µM; in the assay with MCF-7 (Homo sapiens, MCF7, 48 h), 9.64 ± 0.51 µM; with HepG2 (Homo sapiens, HepG2, 48 h), 9.02 ± 0.87 µM.

With `CC(C)C(C)C=CC(C)C1CCC2C1(C)CCC1C23C=CC2(CC(OC(=O)c4ccccc4C(=O)Nc4ccc5ccccc5c4)CCC12C)OO3` (centres unmarked) [Compound 4h, Ergosterol peroxide-3-(2-(naphthalen-2-ylcarbamoyl)benzoate)], the IC50 with A549 (Homo sapiens, A549, 48 h) was found to be 10.1 ± 1.16 µM; with MDA-MB-231 (Homo sapiens, MDA-MB-231), 14.6 ± 0.47 µM; with MCF-7 (Homo sapiens, MCF7, 48 h), 11.4 ± 0.42 µM; in the assay on HepG2 (Homo sapiens, HepG2, 48 h), 14.3 ± 1.55 µM.

In the case of `CC(C)[C@@H](C)/C=C/[C@@H](C)[C@H]1CC[C@@H]2[C@]1(C)CC[C@H]1[C@]23C=C[C@]2(C[C@@H](O)CC[C@]12C)OO3` [EP, Ergosterol peroxide], the IC50 worked out at 15 ± 1.27 µM in the assay with A549 (Homo sapiens, A549, 48 h); 17.3 ± 1.05 µM with MDA-MB-231 (Homo sapiens, MDA-MB-231); 33.7 µM on human GLS1; 19.4 ± 1.5 µM with MCF-7 (Homo sapiens, MCF7, 48 h); 18.1 ± 1.71 µM with HepG2 (Homo sapiens, HepG2, 48 h).
